Columns and labels:
[1] = as described in WO 2015/150476 A1; cited from earlier work
[2] = Plasma pharmacokinetics in rats after single oral 10 mg/kg M-III or MIN-102; format: in vivo, male Sprague Dawley rats
Protocol: The plasma pharmacokinetics of 5-[[4-[2-[5-acetylpyridin-2-yl]ethoxy]phenyl]methyl]-1,3-thiazolidine-2,4-dione (M-III; M3) and 5-[[4-[2-[5-(1-hydroxyethyl)pyridin-2-yl]ethoxy]phenyl]methyl]-1,3-thiazolidine-2,4-dione (M-IV; M4) were determined in male Sprague Dawley following a single oral (10 mg/kg) dose administration of either M-III or MIN-102.
Six animals were dosed orally with a suspension formulation of either M-III or MIN-102 in 0.1% Tween 80 and 99.9% CMC (0.5% w/v solution in RO water) at 10 mg/kg.
The dosing volume administered was 10 mL/kg. Blood samples (approximately 60 μL) were collected from retro-orbital plexus of three rats at 0.08, 0.25, 0.5, 1, 2, 4, 8, 12 and 24 hr (IV) and at predose, 0.25, 0.5, 1, 2, 4, 8, 12 and 24 hr. Samples were collected into labeled micro-tubes, containing K2EDTA solution (20% K2EDTA solution) as an anticoagulant. Plasma was immediately harvested from the blood by centrifugation at 4000 rpm for 10 min at 4±2° C. and stored below −70° C. until bioanalysis.
Concentrations of M-III and M-IV in rat plasma samples were determined by fit-for-purpose LC-MS/MS method. Non-Compartmental-Analysis module in Phoenix WinNonlin® (Version 6.3) was used to assess the pharmacokinetic parameters. Peak plasma concentrations (Cax) and time for the peak plasma concentrations (Tmax) were the observed values. The areas under the concentration time curve (AUClast and AUCinf) were calculated by linear trapezoidal rule.

[3] = Plasma pharmacokinetics in dogs after single oral 3 mg/kg M3 or MIN-102; format: in vivo, male Beagle dogs
Protocol: The plasma pharmacokinetics of 5-[[4-[2-[5-acetylpyridin-2-yl]ethoxy]phenyl]methyl]-1,3-thiazolidine-2,4-dione (M-III; M3) and 5-[[4-[2-[5-(1-hydroxyethyl)pyridin-2-yl]ethoxy]phenyl]methyl]-1,3-thiazolidine-2,4-dione (M-IV; M4) were determined in male Beagle dogs following a single oral (3 mg/kg) dose administration of either M3 or MIN-102.
Six animals were dosed orally with a suspension formulation of either M-III or MIN-102 in 0.1% Tween 80 and 99.9% CMC (aqueous carboxymethylcellulose 0.5% w/v solution in RO water) at 3 mg/kg. Blood samples (0.5 ml) were collected from the saphenous or cephalic or jugular veins of dogs at predose, 0.5, 1, 2, 4, 6 and 24 hr. Samples were collected into labeled micro-tubes, containing K2EDTA solution (20% K2EDTA solution) as an anticoagulant. Plasma was immediately harvested from the blood by centrifugation at 4000 rpm for 10 min and stored below −70° C. until bioanalysis.
Concentrations of M3 and M-IV in dog plasma samples were determined by fit-for-purpose LC-MS/MS method. Non-Compartmental-Analysis module in Phoenix WinNonlin® (Version 6.3) was used to assess the pharmacokinetic parameters. Peak plasma concentrations (Cmax) and time for the peak plasma concentrations (Tmax) were the […] observed values. The areas under the concentration time curve (AUClast and AUCinf) were calculated by linear trapezoidal rule.

MDR1 = test: MDCKII monolayer assay; format: in vitro ADME; details: dog, MDCK; after 120 minutes, MDCKII-MDR1 and MDCKII-Mock; loss due to conversion to M-IV
Protocol: The monolayer assays were performed using parental and MDR1 transfected MDCKII cell monolayers. MDCKII and MDCKII-MDR1 cells were cultured in Dulbecco's Modified Eagle's Medium with 4.5 g/L glucose (DMEM) supplemented with 10% (v/v) fetal bovine serum (FBS) at 37±1° C. in an atmosphere of 95:5 air:CO2 in cell culture flasks prior to seeding into 24-transwell inserts. Transfected and parental MDCKII cells were cultured on the inserts with 400 μL medium per well on the apical side and 25 mL in a single-well receiver tray for all 24 wells on the basolateral side, for 96 hours. Medium was changed 24 hours before the experiment. Trans-epithelial electric resistance (TEER) of each well was measured to confirm the confluency of the monolayers prior to the experiments. Permeability incubations were carried out in Hank's Buffered Salt Solution (HBSS) at 37±1° C. Apical to basolateral permeability of Lucifer yellow (LY) was assessed as a low permeability control and antipyrine was as a high permeability compound. […] LY samples were analyzed by measuring fluorescence with the following wavelengths: excitation—485 nm emission—520 nm, while the antipyrine samples were analyzed with LC-MS/MS.
As another follow-up, MDCKII-MDR1 substrate experiment was repeated at […] M-III. The amounts of M-III and M-IV were determined at the end of the incubation time. […]

[4] = Plasma pharmacokinetics in mice after single oral 50 mg/kg M-III; format: in vivo; details: male C57BL/6 mice
Protocol: To the plasma pharmacokinetics of 5-[[4-[2-[5-acetylpyridin-2-yl]ethoxy]phenyl]methyl]-1,3-thiazolidine-2,4-dione (M-III) and 5-[[4-[2-[5-(1-hydroxyethyl)pyridin-2-yl]ethoxy]phenyl]methyl]-1,3-thiazolidine-2,4-dione (M-IV) were determined in male C57BL/6 mice following a single oral (50 mg/kg) dose administration of M-III.
Nine animals were administered orally with suspension formulation of M-III in 0.1% Tween 80 and 99.9% NaCMC in water (0.5% w/v) at 50 mg/kg dose. The dosing volume administered was 10 mL/kg. The blood samples were collected from set of three mice at each time point in labeled micro centrifuge tube containing K2EDTA solution as anticoagulant at Pre-dose, 0.25, 0.5, 1, 2, 4, 8, 12 and 24 hr. Plasma samples were separated by centrifugation of whole blood and stored below −70±10° C. until bioanalysis. All samples were processed for analysis by protein precipitation using acetonitrile and analyzed with fit-for-purpose LC-MS/MS method (LLOQ=2.46 ng/mL for M-III and 2.49 ng/mL for M-IV). Pharmacokinetic parameters were calculated using the non-compartmental analysis tool of Phoenix WinNonlin® (Version 6.3).

[5] = Plasma pharmacokinetics in mice after single oral 4.5 mg/kg M-III or MIN-102; format: in vivo, male C57BL/6 mice
Protocol: The plasma pharmacokinetics of 5-[[4-[2-[5-acetylpyridin-2-yl]ethoxy]phenyl]methyl]-1,3-thiazolidine-2,4-dione (M-III) and 5-[[4-[2-[5-(1-hydroxyethyl)pyridin-2-yl]ethoxy]phenyl]methyl]-1,3-thiazolidine-2,4-dione (M-IV) were determined in male C57BL/6 mice following a single oral (4.5 mg/kg) dose of either M-III or MIN-102 (5-[[4-[2-[5-(1-hydroxyethyl)pyridin-2-yl]ethoxy]phenyl]methyl]-1,3-thiazolidine-2,4-dione hydrochloride).
Animals were administered orally with a suspension formulation of either M-III or MIN-102 in 0.1% Tween 80 and 99.9% NaCMC in water (0.5% w/v) at 4.5 mg/kg dose. The blood samples were collected from a set of three mice at each time point in labeled micro centrifuge tubes containing K2EDTA solution as anticoagulant at Pre-dose, 0.25, 0.5, 1, 2, 4, 8, 12 and 24 hr. Plasma samples were separated by centrifugation of whole blood and stored below −70±10° C. until bioanalysis. All samples were processed for analysis by protein precipitation using acetonitrile and analyzed with fit-for-purpose LC-MS/MS method (LLOQ=2.46 ng/mL for M-III and 2.49 ng/mL for M-IV). Pharmacokinetic parameters were calculated using the non-compartmental analysis tool of Phoenix WinNonlin® (Version 6.3).

For `CC(=O)c1ccc(CCOc2ccc(CC3SC(=O)NC3=O)cc2)nc1` (stereo not drawn) [M-III, 5-[[4-[2-[5-acetylpyridin-2-yl]ethoxy]phenyl]methyl]-1,3-thiazolidine-2,4-dione], the blood-brain-barrier penetration [1] is given as “does not penetrate the BBB”, the “share of total exposure (AUC)” value ([2]; after single oral 10 mg/kg M-III, male rats) is given as roughly 53% and the “share of total exposure (AUC)” value ([2]; after single oral 10 mg/kg MIN-102, male rats) is given as “about 42%”. For the same compound, the “share of total exposure (AUC)” value ([3]; after single oral 3 mg/kg M3, male dogs) was roughly 16%, the “share of total exposure (AUC)” value ([3]; after single oral 3 mg/kg MIN-102, male dogs) was “about 8%” and the recovery at 120 min (MDR1) was 30 to 60%. For the same compound, the “share of total exposure (AUC)” value [4] was “about 25%”, the “share of total exposure (AUC)” value ([5]; after single oral 4.5 mg/kg M-III, male mice) was roughly 27% and the “share of total exposure (AUC)” value ([5]; after single oral 4.5 mg/kg MIN-102, male mice) was “about 38%”.

— patent publication US20240091210A1, “USE OF 5-[[4-[2-[5-ACETYLPYRIDIN-2-YL]ETHOXY]BENZYL]-1,3-THIAZOLIDINE-2,4-DIONE AND ITS SALTS” (Minoryx Therapeutics S.L., priority 2018, published 2024)
